Assay results taken from patent publication US20040057955A1, “Methods of inhibition of stenosis and/or sclerosis of the aortic valve” (priority 2003, published 2004).

Legend:
Type in all cases: in vivo, human
[1] = system: patients with mild to moderate aortic stenosis; test: Clinical follow up (vital signs, symptoms) in ramipril pilot study; conditions: for HR sitting / HR supine: in bpm (unit assumed); for DBP supine / SBP supine: in mmHg
Description: (§1) Clinical Protocol: This pilot study enrolled 8 patients with mild to moderate aortic stenosis, normal left ventricular (LV) function and no history of coronary artery disease. […] Patients then were placed on the ACE inhibitor ramipril, 2.5 mg qd for 2 weeks followed by up-titration at 2 week intervals to 2.5 mg bid, 5 mg bid and 7.5 mg bid. The study lasted 8 weeks. Vital signs were repeated weekly, chemistry panels every 2 weeks and echocardiograms every 4 weeks.

[2] = system: patients with mild to moderate aortic stenosis; test: Lab measures (chemistry panel) in ramipril pilot study
Description: as §1

[3] = system: patients with mild to moderate aortic stenosis; test: Echo measures (echocardiogram) in ramipril pilot study
Description: as §1

[4] = Week 1, ramipril dose 2.5 × 1, n = 8, mean±SD
[5] = Week 1, ramipril dose 2.5 × 1, n = 8
[6] = Week 2, ramipril dose 2.5 × 1, n = 8, mean±SD
[7] = Week 2, ramipril dose 2.5 × 1, n = 8
[8] = Week 3, ramipril dose 2.5 × 2, n = 8, mean±SD
[9] = Week 3, ramipril dose 2.5 × 2, n = 8
[10] = Week 4, ramipril dose 2.5 × 2, n = 8, mean±SD
[11] = Week 4, ramipril dose 2.5 × 2, n = 8
[12] = Week 5, ramipril dose 5 × 2, n = 8, mean±SD
[13] = Week 5, ramipril dose 5 × 2, n = 8
[14] = Week 6, ramipril dose 5 × 2, n = 8, mean±SD
[15] = Week 6, ramipril dose 5 × 2, n = 8
[16] = Week 7, ramipril dose 7.5 × 2, n = 8, mean±SD
[17] = Week 7, ramipril dose 7.5 × 2, n = 8
[18] = Week 8 (final), ramipril dose 7.5 × 2, n = 8, mean±SD
[19] = Week 8 (final), ramipril dose 7.5 × 2, n = 8, mean±SD, listed as Ramipril
[20] = Week 8, ramipril dose 7.5 × 2, n = 8
[21] = count among n = 8, Week 1, ramipril dose 2.5 × 1
[22] = count among n = 8, Week 2, ramipril dose 2.5 × 1
[23] = count among n = 8, Week 3, ramipril dose 2.5 × 2
[24] = count among n = 8, Week 4, ramipril dose 2.5 × 2
[25] = count among n = 8, Week 5, ramipril dose 5 × 2
[26] = count among n = 8, Week 6, ramipril dose 5 × 2
[27] = count among n = 8, Week 7, ramipril dose 7.5 × 2
[28] = count among n = 8, Week 8, ramipril dose 7.5 × 2

CCOC(=O)[C@H](CCc1ccccc1)N[C@@H](C)C(=O)N1[C@H](C(=O)O)C[C@@H]2CCC[C@@H]21 [ramipril]
DBP sitting [1, 4]: 67 ± 9 mmHg | SBP sitting [1, 4]: 109 ± 17 mmHg | HR sitting [1, 5]: 60 ± 9 | HR supine [1, 5]: 58 ± 5 | DBP supine [1, 5]: 62 ± 5 | SBP supine [1, 5]: 106 ± 15 | DBP sitting [1, 6]: 65 ± 8 mmHg | SBP sitting [1, 6]: 113 ± 16 mmHg | HR sitting [1, 7]: 61 ± 8 | HR supine [1, 7]: 63 ± 6 | DBP supine [1, 7]: 60 ± 9 | SBP supine [1, 7]: 110 ± 12 | DBP sitting [1, 8]: 65 ± 8 mmHg | SBP sitting [1, 8]: 111 ± 15 mmHg | HR sitting [1, 9]: 62 ± 8 | HR supine [1, 9]: 62 ± 11 | DBP supine [1, 9]: 60 ± 7 | SBP supine [1, 9]: 107 ± 14 | DBP sitting [1, 10]: 64 ± 5 mmHg | SBP sitting [1, 10]: 112 ± 16 mmHg | HR sitting [1, 11]: 65 ± 7 | HR supine [1, 11]: 64 ± 7 | DBP supine [1, 11]: 64 ± 8 | SBP supine [1, 11]: 111 ± 14 | DBP sitting [1, 12]: 67 ± 9 mmHg | SBP sitting [1, 12]: 116 ± 17 mmHg | HR sitting [1, 13]: 62 ± 6 | HR supine [1, 13]: 61 ± 7 | DBP supine [1, 13]: 69 ± 10 | SBP supine [1, 13]: 116 ± 17 | DBP sitting [1, 14]: 65 ± 4 mmHg | SBP sitting [1, 14]: 118 ± 20 mmHg | HR sitting [1, 15]: 61 ± 8 | HR supine [1, 15]: 61 ± 5 | DBP supine [1, 15]: 65 ± 6 | SBP supine [1, 15]: 114 ± 20 | DBP sitting [1, 16]: 70 ± 10 mmHg | SBP sitting [1, 16]: 121 ± 13 mmHg | HR sitting [1, 17]: 61 ± 4 | HR supine [1, 17]: 61 ± 6 | DBP supine [1, 17]: 72 ± 6 | SBP supine [1, 17]: 121 ± 13 | DBP sitting [1, 18]: 65±10 mmHg | SBP sitting [1, 18]: 114±14 mmHg | DBP sitting [1, 19]: 65 ± 10 mmHg | SBP sitting [1, 19]: 114 ± 14 mmHg | HR sitting ([1]; Week 8 (final), ramipril dose 7.5 × 2, n = 8): 62±3 | HR sitting ([1]; Week 8 (final), ramipril dose 7.5 × 2, n = 8, listed as Ramipril): 62 ± 3 | HR supine [1, 20]: 62 ± 3 | DBP supine [1, 20]: 63 ± 6 | SBP supine [1, 20]: 120 ± 15 | Cough [1, 21]: 0 | Ghest pain [1, 21]: 0 | Hyper-sensitivity [1, 21]: 0 | Light-headedness [1, 21]: 0 | Cough [1, 22]: 0 | Ghest pain [1, 22]: 0 | Hyper-sensitivity [1, 22]: 0 | Light-headedness [1, 22]: 0 | Cough [1, 23]: 0 | Ghest pain [1, 23]: 0 | Hyper-sensitivity [1, 23]: 0 | Light-headedness [1, 23]: 0 | Cough [1, 24]: 0 | Ghest pain [1, 24]: 0 | Hyper-sensitivity [1, 24]: 0 | Light-headedness [1, 24]: 0 | Cough [1, 25]: 0 | Ghest pain [1, 25]: 0 | Hyper-sensitivity [1, 25]: 0 | Light-headedness [1, 25]: 0 | Cough [1, 26]: 2 | Ghest pain [1, 26]: 1 | Hyper-sensitivity [1, 26]: 0 | Light-headedness [1, 26]: 0 | Cough [1, 27]: 0 | Ghest pain [1, 27]: 0 | Hyper-sensitivity [1, 27]: 0 | Light-headedness [1, 27]: 0 | Cough [1, 28]: 1 | Ghest pain [1, 28]: 1 | Hyper-sensitivity [1, 28]: 0 | Light-headedness [1, 28]: 1 | Creatinine ([2]; Week 1, n = 8, mean±SD): 1.1 ± 0.3 mg/dL | Glucose ([2]; Week 1, n = 8, mean±SD): 97 ± 29 mg/dL | Potassium ([2]; Week 1, n = 8, mean±SD): 4.3 ± 0.3 mEq/L | Creatinine ([2]; Week 3, n = 8, mean±SD): 1.2 ± 0.4 mg/dL | Glucose ([2]; Week 3, n = 8, mean±SD): 96 ± 15 mg/dL | Potassium ([2]; Week 3, n = 8, mean±SD): 4.4 ± 0.4 mEq/L | Creatinine ([2]; Week 5, n = 8, mean±SD): 1.1 ± 0.3 mg/dL | Glucose ([2]; Week 5, n = 8, mean±SD): 91 ± 18 mg/dL | Potassium ([2]; Week 5, n = 8, mean±SD): 4.3 ± 0.5 mEq/L | Creatinine ([2]; Week 7, n = 8, mean±SD): 1.1 ± 0.3 mg/dL | Glucose ([2]; Week 7, n = 8, mean±SD): 91 ± 19 mg/dL | Potassium ([2]; Week 7, n = 8, mean±SD): 4.4 ± 0.5 mEq/L | Creatinine ([2]; final measurement, mean±SD): 1.1 ± 0.3 mg/dL | Glucose ([2]; final measurement, mean±SD): 91 ± 18 mg/dL | Potassium ([2]; final measurement, mean±SD): 4.3 ± 0.5 mEq/L | AS-Jet (aortic stenosis jet velocity) ([3]; Week4, n = 8, mean±SD): 2.8 ± 0.2 m/sec | Cardiac output ([3]; Week4, n = 8, mean±SD): 5.9 ± 1.5 L/min | LVEF ([3]; Week4, n = 8, mean±SD): 73 ± 4% | LVOT-velocity (left ventricular outflow tract velocity) ([3]; Week4, n = 8, mean±SD): 1.1 ± 0.1 m/sec | AS-Jet (aortic stenosis jet velocity) ([3]; Week8 (final), n = 8, mean±SD): 2.8±0.3 m/sec | Cardiac output ([3]; Week8 (final), n = 8, mean±SD): 5.7 ± 1.4 L/min | LVEF ([3]; Week8 (final), n = 8, mean±SD): 71±7% | LVOT-velocity (left ventricular outflow tract velocity) ([3]; Week8 (final), n = 8, mean±SD): 1.0±0.2 m/sec
